Among the data in patent US9096565B2, “Inhibitors of histone deacetylase” (MethylGene Inc., priority 2007, dated 2015) are IC50 values, retold here.

For the assay, the target named is one or more of HDAC-4, HDAC-5, HDAC-6, HDAC-7, HDAC-8, HDAC-9, HDAC-10 and HDAC-11. In words: Inhibition of histone deacetylase enzymatic activity (summary statement over isoforms). Conditions: Table 3, selected examples; HDAC isoform not given. The format is biochemical. The method, then:
The following protocol is used to assay the compounds of the invention.
The mixture is pre-incubated for 5 minutes at room temperature. The reaction is started by bringing the temperature to 37° C. and adding 15 μL substrate. Total reaction volume is 50 μL.
A 30 mM stock of Boc-Lys(trifluoroacetyl)-AMC substrate is prepared in DMSO. […] Reaction is started by adding 18 μL Boc-Lys(trifluoroacetyl)-AMC substrate and incubating at 37° C. for 20-30 minutes. The reaction is stopped by adding 50 μL trypsin (1 mg/mL) and a known HDAC inhibitor.

By IC50 is commonly meant the concentration needed to halve the response being measured. `O=C(NO)C(c1ccccc1)N1CCN(Cc2ccccc2)CC1` (stereo not drawn) [Compound 1-17, 2-(4-benzylpiperazin-1-yl)-N-hydroxy-2-phenylacetamide] had an IC50 of 1000 to 15000 nM.
The value for `O=C(NO)C(c1ccccc1)c1cccc(NCc2ccccn2)c1` (stereo not drawn) [Compound 3-74, N-hydroxy-2-phenyl-2-(3-(pyridin-2-ylmethylamino)phenyl)acetamide] was < 1000 nM.
The figure for `O=C(NO)C(c1ccccc1)c1ccc(NCc2ccccc2)cc1` (stereo not drawn) [Compound 2-78, 2-(4-(benzylamino)phenyl)-N-hydroxy-2-phenylacetamide] is < 1000 nM; for `O=C(NO)C(c1ccccc1)c1ccc(C#CCN2CCS(=O)(=O)CC2)cc1` (stereo not drawn) [Compound 5-91] it is < 1000 nM.
The figure for `O=C(NO)C(c1ccccc1)c1cccc(NS(=O)(=O)c2ccccc2)c1` (stereo not drawn) [Compound 2-89, N-hydroxy-2-phenyl-2-(3-(phenylsulfonamido)phenyl)acetamide] is 1000 to 15000 nM; for `CCN(CC)c1ccc(C(C(=O)NO)c2ccccc2)cc1` (stereo not drawn) [Compound 1-19, 2-(4-(diethylamino)phenyl)-N-hydroxy-2-phenylacetamide] it is < 1000 nM; for `O=C(NO)C(c1ccc(N2CCOCC2)cc1)c1cccc(OC(F)(F)F)c1` (stereo not drawn) [Compound 6-20, N-hydroxy-2-(4-morpholinophenyl)-2-(3-(trifluoromethoxy)phenyl)acetamide] it is 1000 to 15000 nM.
With `O=C(NO)C(C(=O)Nc1cccc(C(F)(F)F)c1)c1ccccc1` (stereo not drawn) [Compound 1-33, N1-hydroxy-2-phenyl-N3-(3-(trifluoromethyl)phenyl)malonamide], the IC50 is < 1000 nM.
The value for `CN(C)CCCOc1ccc(C(C(=O)NO)c2ccccc2)cc1` (stereo not drawn) [Compound 3-16, 2-(4-(3-(dimethylamino)propoxy)phenyl)-N-hydroxy-2-phenylacetamide] was < 1000 nM.
The value for `Cn1cncc1C#Cc1ccc(C(C(=O)NO)c2ccccc2)cc1` (stereo not drawn) [Compound 5-79, N-hydroxy-2-(4-((1-methyl-1H-imidazol-5-yl)ethynyl)phenyl)-2-phenylacetamide] was < 1000 nM; that for `C=CCOc1ccc(C(C(=O)NO)c2ccccc2)cc1` (stereo not drawn) [Compound 3-46, 2-(4-(allyloxy)phenyl)-N-hydroxy-2-phenylacetamide] was < 1000 nM.
The value for `O=C(NO)C(c1ccccc1)N1CCN(c2ccccn2)CC1` (stereo not drawn) [Compound 5-73, N-hydroxy-2-phenyl-2-(4-(pyridin-2-yl)piperazin-1-yl)acetamide] was < 1000 nM.
Turning to `O=C(NO)C(Sc1nc2cc(Cl)ccc2s1)c1ccccc1` (stereo not drawn) [Compound 5-59, 2-(5-chlorobenzo[d]thiazol-2-ylthio)-N-hydroxy-2-phenylacetamide], the IC50 was < 1000 nM.
The figure for `O=C(NO)C(c1ccccc1)c1ccc(N2CCN(Cc3ccccc3)CC2)cc1` (stereo not drawn) [Compound 5-65, 2-(4-(4-benzylpiperazin-1-yl)phenyl)-N-hydroxy-2-phenylacetamide] is < 1000 nM; for `O=C(Nc1ccc(C(C(=O)NO)c2ccccc2)cc1)c1cccc(Cl)c1` (stereo not drawn) [Compound 2-72, 3-chloro-N-(4-(2-(hydroxyamino)-2-oxo-1-phenylethyl)phenyl)benzamide] it is < 1000 nM; for `O=C(NO)C(c1ccccc1)N1CCC(Cc2ccc(F)cc2)CC1` (stereo not drawn) [Compound 1-30, 2-(4-(4-fluorobenzyl)piperidin-1-yl)-N-hydroxy-2-phenylacetamide] it is < 1000 nM.
The figure for `O=C(NO)C(c1ccccc1)c1ccc(NCc2ccc(F)cc2)cc1` (stereo not drawn) [Compound 2-51, 2-(4-(4-fluorobenzylamino)phenyl)-N-hydroxy-2-phenylacetamide] is < 1000 nM; for `CC(C)=CCOc1ccc(C(C(=O)NO)c2ccccc2)cc1` (stereo not drawn) [Compound 3-52, N-hydroxy-2-(4-(3-methylbut-2-enyloxy)phenyl)-2-phenylacetamide] it is < 1000 nM.
The value for `CN(C)c1ccc(-c2ccc(C(C(=O)NO)c3ccccc3)cc2)cc1` (stereo not drawn) [Compound 5-21, 2-(4′-(dimethylamino)biphenyl-4-yl)-N-hydroxy-2-phenylacetamide] was < 1000 nM; that for `CN(C)C(=O)c1ccc(-c2ccc(C(C(=O)NO)c3ccccc3)cc2)cc1` (stereo not drawn) [Compound 2-116, 4′-(2-(hydroxyamino)-2-oxo-1-phenylethyl)-N,N-dimethylbiphenyl-4-carboxamide] was < 1000 nM; that for `O=C(NO)C(c1ccccc1)c1cccc(OCCN2CCCC2)c1` (stereo not drawn) [Compound 3-19, N-hydroxy-2-phenyl-2-(3-(2-(pyrrolidin-1-yl)ethoxy)phenyl)acetamide] was < 1000 nM.
Take `O=C(NO)C(c1ccccc1)c1ccc(OCCN2CCOCC2)cc1` (stereo not drawn) [Compound 5-40, N-hydroxy-2-(4-(2-morpholinoethoxy)phenyl)-2-phenylacetamide]: the IC50 was < 1000 nM.
Regarding `O=C(NO)C(c1ccccc1)c1ccc(-c2ccc3[nH]ccc3c2)cc1` (stereo not drawn) [Compound 5-41, 2-(4-(1H-indol-5-yl)phenyl)-N-hydroxy-2-phenylacetamide], the IC50 is < 1000 nM.
The figure for `O=C(NO)C(c1ccccc1)c1cccc(OC2CCCC2)c1` (stereo not drawn) [Compound 3-29, 2-(3-(cyclopentyloxy)phenyl)-N-hydroxy-2-phenylacetamide] is 1000 to 15000 nM; for `Cc1cc(C)nc(N2CCN(C(C(=O)NO)c3ccccc3)CC2)n1` (stereo not drawn) [Compound 5-80, 2-(4-(4,6-dimethylpyrimidin-2-yl)piperazin-1-yl)-N-hydroxy-2-phenylacetamide] it is < 1000 nM; for `O=C(NO)C(c1ccccc1)n1cc(CCc2ccccc2)nn1` (stereo not drawn) [Compound 1-27, N-hydroxy-2-(4-phenethyl-1H-1,2,3-triazol-1-yl)-2-phenylacetamide] it is 1000 to 15000 nM.
The figure for “2-(3-(benzo[d][1,3]dioxol-5-ylmethylbenzo[d][1,3]dioxol-5-ylmethoxy)phenyl)-N-hydroxy-2-phenylacetamide [Compound 3-7]” is < 1000 nM; for `O=C(NO)C(c1ccccc1)c1ccc(N2C[C@@H]3C[C@H]2CO3)cc1` (stereo partly drawn) [Compound 5-78, 2-(4-((1S,4S)-2-oxa-5-azabicyclo[2.2.1]heptan-5-yl)phenyl)-N-hydroxy-2-phenylacetamide] it is < 1000 nM; for `CSc1cccc(C(C(=O)NO)c2ccc(N3CCOCC3)cc2)c1` (stereo not drawn) [Compound 6-25, N-hydroxy-2-(3-(methylthio)phenyl)-2-(4-morpholinophenyl)acetamide] it is < 1000 nM.
The value for `O=C(NO)C(c1ccccc1)c1cccc(C#Cc2ccccc2)c1` (stereo not drawn) [Compound 2-94, N-hydroxy-2-phenyl-2-(3-(phenylethynyl)phenyl)acetamide] was 1000 to 15000 nM; that for `O=C(NO)C(c1ccccc1)c1ccc(OCc2ccc(F)cc2)cc1` (stereo not drawn) [Compound 2-13] was < 1000 nM.
Consider `O=C(NO)C(c1ccc(N2CCCC2)cc1)c1ccc2c(c1)CCO2` (stereo not drawn) [Compound 5-69, 2-(2,3-dihydrobenzofuran-5-yl)-N-hydroxy-2-(4-(pyrrolidin-1-yl)phenyl)acetamide], for which the IC50 was < 1000 nM.
The figure for `Cc1ccc(S(=O)(=O)N2CCN(C3(C(=O)NO)CCc4ccccc43)CC2)cc1` (stereo not drawn) [Compound 6-18, N-hydroxy-1-(4-(p-tolylsulfonyl)piperazin-1-yl)-2,3-dihydro-1H-indene-1-carboxamide] is 1000 to 15000 nM.
The figure for `CC(Oc1cccc(C(C(=O)NO)c2ccccc2)c1)c1ccccc1` (stereo not drawn) [Compound 3-8, N-hydroxy-2-phenyl-2-(3-(1-phenylethoxy)phenyl)acetamide] is 1000 to 15000 nM; for `O=C(NO)C(c1ccccc1)N1CCC(O)(c2ccccc2)CC1` (stereo not drawn) [Compound 5-1, N-hydroxy-2-(4-hydroxy-4-phenylpiperidin-1-yl)-2-phenylacetamide] it is < 1000 nM; for `O=C(NO)C(c1ccccc1)c1ccc(OCCN2CCCC2)cc1` (stereo not drawn) [Compound 5-96, N-hydroxy-2-phenyl-2-(4-(2-(pyrrolidin-1-yl)ethoxy)phenyl)acetamide] it is < 1000 nM.
As for `O=C(NO)C(c1ccccc1)c1ccc(C#Cc2cccnc2)cc1` (stereo not drawn) [Compound 5-63, N-hydroxy-2-phenyl-2-(4-(pyridin-3-ylethynyl)phenyl)acetamide], the IC50 was < 1000 nM.
The figure for `O=C(NO)C(c1ccccc1)c1nnc(-c2ccccc2-c2ccccc2)s1` (stereo not drawn) [Compound 5-39, 2-(5-(biphenyl-2-yl)-1,3,4-thiadiazol-2-yl)-N-hydroxy-2-phenylacetamide] is 1000 to 15000 nM.
The figure for `O=C(NO)C(c1ccc(F)cc1)c1ccc(N2CCOCC2)cc1` (stereo not drawn) [Compound 5-90, 2-(4-fluorophenyl)-N-hydroxy-2-(4-morpholinophenyl)acetamide] is < 1000 nM; for `Nc1ccccc1NC(=O)c1ccc(C(C(=O)NO)c2ccccc2)cc1` (stereo not drawn) [Compound 5-108, N-(2-aminophenyl)-4-(2-(hydroxyamino)-2-oxo-1-phenylethyl)benzamide] it is < 1000 nM.
`O=C(NO)C(c1ccccc1)[S+]([O-])c1ccccc1` (stereo not drawn) [Compound 5-6, N-hydroxy-2-phenyl-2-(phenylsulfinyl)acetamide]: the IC50 was in the range of 1000 to 15000 nM.
For `O=C(NO)C(c1ccc([N+](=O)[O-])cc1)c1ccc([N+](=O)[O-])cc1` [Compound 1-3, N-hydroxy-2,2-bis(4-nitrophenyl)acetamide], the IC50 is < 1000 nM.
The figure for `CC(=O)N1CCN(c2cccc(C(C(=O)NO)c3ccccc3)c2)CC1` (stereo not drawn) [Compound 3-75, 2-(3-(4-acetylpiperazin-1-yl)phenyl)-N-hydroxy-2-phenylacetamide] is < 1000 nM; for `O=C(NO)C(c1ccccc1)N1CCN(c2ccc(F)cc2)CC1` (stereo not drawn) [Compound 5-57, 2-(4-(4-fluorophenyl)piperazin-1-yl)-N-hydroxy-2-phenylacetamide] it is 1000 to 15000 nM.
The figure for `O=C(CC(c1ccccc1)c1ccccc1)NO` [Compound 1-6, N-hydroxy-3,3-diphenylpropanamide] is < 1000 nM.
